The nature of data set [1]: Antibiotic activity by bioassay against authentic TAN-1057 A/B. The data set is classed as cell-based. Particulars: compared with authentic TAN-1057 A/B (Takeda). The method, then:
To a solution of 29 (40 mg, 0.045 mmol, 1.0 eq) in MeOH (1.5 mL)/CH2 Cl2 (0.5 mL) was added PdCl2 (40 mg). The reaction flask was degassed and charged with H2 (1 atm). The mixture was stirred for 30 min. The mixture was then purged with nitrogen, and filtered to remove the catalyst. The filtrate was concentrated and dried in vacuo to give a 2HCl salt of TAN-1057 A/B (1/2) (1:1, 20 mg, 100% yield) as an amorphous solid. This product was identical in mobility by HPLC, mnr and antibiotic activity by bioassay to authentic TAN-1057 A/B (Takeda). ^1 HNMR (300 MHz, D2 O): δ1.77 (4H, m); 2.85 (1H, dd, J=18, 9.3 Hz); 3.00 (1H, dd, J=18, 4.0 Hz); 3.17 (3H, s); 3.27 (2H, t, J=6.0 Hz); 3.70 (1H, m); 3.99 (2H, m); 5.14 (1H, dd, J=12, 8.5 Hz) ppm; IR (KBr pellet): 3350, 3179, 2955, 1696, 1622, 1395, 1205, 1135 cm^1. MS (ES^+): Calcd. (C13 H25 N9 O3 +H)=356.2, Found (M+H)=356.4.

Data set [2] concerns Staphylococcus haemolyticus UA281. Kind of data set: MIC, broth microdilution (NCCLS), S. haemolyticus UA281. The class given is cell-based. Particulars: S. haemolyticus UA281, methicillin resistant, 35° C., 20 h, read-out: Minimal Inhibitory Concentration (MIC). The method, then:
(§1) Test compounds were assayed against Staphylococcus aureus FDA 209P by the 10 fold agar disc diffusion assay on BHI-plates at pH=7 and pH=9 in accordance with the procedure from the National Committee for Clinical Laboratory Standards 1989. Susceptibility testing. A panel of 16 bacteria was used to evaluate the antimicrobial activity of the compounds (Table 2). The MIC of each antimicrobial agent was determined using a microdilution method according to NCCLS standards^1. Serial twofold dilutions of antibiotics were prepared in Mueller-Hinton broth (Difco Laboratories, Detroit, Mich.). Bacteria were grown to early log phase at 35° C. (1 hours) in Mueller-Hinton broth and cultures were diluted to achieve a final inoculum of 5×10^5 CFU per ml. Microtiter plates were incubated at 35° C. for 20 h and then were read using a Thermomax microplate reader (Molecular Devices, Sunnyvale, Calif.) and a microtiter plate reading mirror. The MIC was defined as the lowest concentration of antibiotic which inhibited the development of visible growth at the end of the incubation period. The standard reference strains were Staphyloccocus aureus ATCC […], Enterococcus faecalis ATCC 29212, E. faecium ATCC 35667, Escherichia coli ATCC 25922, and Pseudomonas aeruginosa ATCC 27853. Imipenem and vancomycin were used as antibiotic controls and values for reference strains were in accordance with the NCCLS.
(§2) Staphylococcus Methicillin
haemolyticus UA281 resistant

In data set [3] the test system is Gram-positive and Gram-negative bacteria. The note with it: S- versus R-configuration in the heterocyclic portion; cited from earlier work.
In data set [4] the test system is Staphylococcus aureus PC1. Kind of data set: MIC, broth microdilution (NCCLS), S. aureus PC1. Particulars: S. aureus PC1, Type A βlactamase hyperproducer, 35° C., 20 h, read-out: Minimal Inhibitory Concentration (MIC). The class given is cell-based. As to the method:
as §1
Staphylococcus Type A βlactamase
aureus PC1 hyperproducer
On the technique in general: Broth dilution looks for growth in wells or tubes with falling amounts of substance.

Data set [5] deals with Escherichia coli ATCC 25922. Kind of data set: MIC, broth microdilution (NCCLS), E. coli ATCC 25922. The class given is cell-based. The note with it: ATCC25922, E. coli ATCC 25922, reference strain, 35° C., 20 h, read-out: Minimal Inhibitory Concentration (MIC). The method, then:
as §1

For data set [6] the following is noted: cited from earlier work.
Data set [7] relates to Staphylococcus aureus ATCC 29213. Kind of data set: MIC, broth microdilution (NCCLS), S. aureus ATCC 29213. The class given is cell-based. Particulars: ATCC29213, S. aureus ATCC 29213, reference strain, 35° C., 20 h, read-out: Minimal Inhibitory Concentration (MIC). The method, then: as §1
Staphylococcus ATCC Reference strain

The subject of data set [8] is Enterococcus faecium efm040. The data set can be described thus: MIC, broth microdilution (NCCLS), E. faecium efm040. The data set is classed as cell-based. Particulars: E. faecium efm040, clinical isolate U.S.A., ampicillin resistant, 35° C., 20 h, read-out: Minimal Inhibitory Concentration (MIC). The method, then: as §1
Enterococcus Clinical isolate,
faecium efm040 U.S.A. resistant

Data set [9] relates to Staphylococcus aureus sa ATCC 13709. The data set can be described thus: MIC, broth microdilution (NCCLS), S. aureus sa ATCC 13709. The class given is cell-based. Particulars: ATCC13709, S. aureus sa ATCC 13709, Smith strain, 35° C., 20 h, read-out: Minimal Inhibitory Concentration (MIC). The method, then:
as §1

For data set [10], the system named is Enterococcus faecalis ATCC 29212. Kind of data set: MIC, broth microdilution (NCCLS), E. faecalis ATCC 29212. The data set is classed as cell-based. The note with it: ATCC29212, E. faecalis ATCC 29212, reference strain, 35° C., 20 h, read-out: Minimal Inhibitory Concentration (MIC). As to the method:
as §1
(§3) Enterococcus ATCC Reference strain

Data set [11] has as its system Staphylococcus aureus COL8A. The data set can be described thus: MIC, broth microdilution (NCCLS), S. aureus COL8A. The class given is cell-based. Particulars: 20 h, read-out: Minimal Inhibitory Concentration (MIC). As to the method: as §1, §2
aureus COL8A susceptible, […]

In another data set the test system is MRSA. The note with it: cited from earlier work.
For data set [12], the system named is Pseudomonas Aeruginosa ATCC 27853. Kind of data set: MIC, broth microdilution (NCCLS), P. aeruginosa ATCC 27853. Particulars: ATCC27853, P. aeruginosa ATCC 27853, reference strain, 35° C., 20 h, read-out: Minimal Inhibitory Concentration (MIC). The data set is classed as cell-based. As to the method:
as §1

The conditions of data set [13]: cited from earlier work. This is another data set of the same source.
The test system of data set [14] is Staphylococcus aureus ATCC 33593. Kind of data set: MIC, broth microdilution (NCCLS), S. aureus ATCC 33593. The data set is classed as cell-based. Particulars: ATCC33593, S. aureus ATCC 33593, methicillin resistant, β-lactamase positive, 35° C., 20 h, read-out: Minimal Inhibitory Concentration (MIC). The method, then:
as §1
Staphylococcus ATCC Methicillin
aureus ATCC 33593 resistant, β-

In data set [15] the test system is Enterococcus faecium ATCC 35667. The data set can be described thus: MIC, broth microdilution (NCCLS), E. faecium ATCC 35667. The data set is classed as cell-based. The note with it: ATCC35667, E. faecium ATCC 35667, reference strain, 35° C., 20 h, read-out: Minimal Inhibitory Concentration (MIC). As to the method: as §1, §3
For a further data set, the system named is Staphylococcus aureus 76. The data set can be described thus: MIC, broth microdilution (NCCLS), S. aureus 76. The class given is cell-based. The note with it: Staphylococcus aureus; S. aureus 76, methicillin resistant, β-lactamase positive; 35° C., 20 h; read-out: Minimal Inhibitory Concentration (MIC). As to the method: as §1, §2
Data set [16] concerns Staphylococcus aureus sa201. The data set can be described thus: MIC, broth microdilution (NCCLS), S. aureus sa201. Particulars: S. aureus sa201, clinical isolate Spain, methicillin resistant, β-lactamase positive, 35° C., 20 h, read-out: Minimal Inhibitory Concentration (MIC). The class given is cell-based. The method, then: as §1
Staphylococcus Clinical isolate,
aureus sa201 Spain resistant, β-

Data set [17] relates to Staphylococcus aureus COL. Kind of data set: MIC, broth microdilution (NCCLS), S. aureus COL. Particulars: S. aureus COL, methicillin resistant, β-lactamase negative, 35° C., 20 h, read-out: Minimal Inhibitory Concentration (MIC). The data set is classed as cell-based. As to the method: as §1, §2
aureus COL resistant, β-

Data set [18] deals with Enterococcus faecium BM4147. Kind of data set: MIC, broth microdilution (NCCLS), E. faecium BM4147. The note with it: E. faecium BM4147, vancomycin resistant, vanA, 35° C., 20 h, read-out: Minimal Inhibitory Concentration (MIC). The data set is classed as cell-based. As to the method: as §1
Enterococcus Vancomycin
faecium BM4147 resistant, vanA

Data set [19] in a line: Stability in 0.1 M phosphate buffer pH=5. The class given is physicochemical. Particulars: 0.1 M phosphate buffer at pH=5. As to the method:
Compound 36 (10 mg, 0.012 mmol) was treated with anisole (0.1 mL) and TFA (1.0 mL) at 0° C. The mixture was stirred for 1 h at room temperature, concentrated and purified by PTLC (silica gel, CH2 Cl2 : MeOH, 6:1) to give 6.0 mg of a semi-solid. To a solution of this substance (6 mg, 0.0066 mmol, 1.0 eq) in MeOH (1.0 mL)/CH2 Cl2 (0.5 mL) was added PdCl2 (8.0 mg) After degassing with N2, the reaction mixture was charged with H2 (1 atm.) and the mixture was hydrogenated for 10 min. The mixture was then purged with nitrogen, and filtered to remove the catalyst. The filtrate was concentrated and dried in vacuo to give a 2HCl salt of TAN-1057 C/D (1:1, 3 mg ~100% yield) as an amorphous solid. ^1 H NMR (300 MHz, DMSO-d6 vs TMS): δ1.51 (4H, m); 2.82 (3H, s); 2.70-2.90 (2H, m); 3.09 (2H, m); 3.43 (1H, m); 3.79 (2H, m); 4.66 (1/2H, m); 4.75 (1/2H, m); 7.26 (6H, m); 7.86 (1H, br); 8.06 (1H, br); 8.70 (2H, br); 9.15 (1H, br); 10.35 (1H, br) ppm. MS (FAB): Calcd. for (C13 H25 N9 O3 +H)=356.2. Found: (M+H)=356.3; (M+2H)^++ =178.7.

≈ marks a conversion by molar mass, not a printed value.

As for `CN(C(=O)C[C@@H](N)CCCNC(=N)N)C1CNC(NC(N)=O)=NC1=O` (stereo partly shown) [TAN-1057 A/B, 3S,5'S/R-3-amino-6-[(aminoiminomethyl)amino]-N-[2-[(aminocarbonyl)amino]-1,4,5,6-tetrahydro-4-oxo-5-pyrimidinyl)-N-methyl-hexanamide], the “antibiotic activity by bioassay” value in data set [1] is “identical”.

Turning to `CN(C(=O)C[C@@H](N)CCCNC(=N)N)[C@H]1CNC(NC(N)=O)=NC1=O` [TAN-1057A], the MIC worked out at 32 µg/mL (≈ 90 µM) in data set [2]; 8 µg/mL (≈ 22.5 µM) in [4]; 256 µg/mL (≈ 720 µM) in data set [5]; 16 µg/mL (≈ 45 µM) in data set [7]; 128 µg/mL (≈ 360 µM) in data set [8]; 16 µg/mL (≈ 45 µM) in data set [9]. The MIC in data set [10] was 32 µg/mL (≈ 90 µM); in [11], 16 µg/mL (≈ 45 µM); in data set [12] it was 256 µg/mL (≈ 720 µM); in data set [14] it was 16 µg/mL (≈ 45 µM); in [15], 32 µg/mL (≈ 90 µM); in the data set with Staphylococcus aureus 76, 16 µg/mL (≈ 45 µM). The MIC came to 16 µg/mL (≈ 45 µM) in data set [16], 16 µg/mL (≈ 45 µM) in data set [17] and 32 µg/mL (≈ 90 µM) in data set [18]. For the same molecule, the “relative antibacterial activity of stereoisomers” value in data set [3] is “more active than TAN-1057 B and C”. Besides, in data set [6] (acidic and basic media, racemization of α-amino acid stereogenic center), the hydrolysis result is “occurs in both acidic and basic media”. In addition, the “loss of antibacterial activity in basic aqueous solutions” value in data set [6] (basic aqueous solutions, hydrolytic opening of six-membered ring) is “gradually lost their antibacterial activities in basic aqueous solutions”. Also, the “activity against MRSA” value in the data set on MRSA is given as “potent activity against all of the MRSA strains evaluated”. The “comparison to vancomycin in mice” value in data set [13] is “compare very favorably to vancomycin in mice”.

As to `CN1C(=O)C[C@H](CCCNC(=N)N)NC(=O)C1CNC(=N)NC(N)=O` (stereo partly drawn) [TAN-1057 C/D, [[[[5-[3-[(aminoiminomethyl)amino]propyl]hexahydro-(2S/R,5S)-1-methyl-3,7-dioxo-1H-1,4-diazepin-2-yl]methyl]amino]iminomethyl]urea], in [19], the “reversion upon standing in phosphate buffer” value is “reverted to a mixture of 1 and 2”.

Source of the values: patent publication US6162925A, “Antibiotic for methicillin resistant bacteria” (Research Corporation Tech., Inc., priority 1999, dated 2000).
